Experimental data published in EPA's ToxRefDB 2.

What was measured:
dog [1] = settings: Chronic toxicity, beagle, Oral, Capsule, dose end: 52 week, group: systemic
rat [2] = settings: Multigenerational reproductive toxicity study, sprague dawley, Oral, Feed, dose end: 2 generation
mouse [3] = settings: Carcinogenicity, cd1, Oral, Feed, dose end: 18 month, group: systemic
rabbit [4] = settings: Prenatal developmental toxicity study, new zealand white, Oral, Gavage/Intubation, dose end: 19 GD
rat [5] = settings: Combined chronic toxicity/carcinogenicity, sprague dawley, Oral, Feed, dose end: 2 year, group: systemic
dog [6] = settings: Subchronic oral toxicity in nonrodent, beagle, Capsule, dose end: 13 week, group: systemic
rat [7] = settings: Subchronic oral toxicity in rodents, sprague dawley, Feed, dose end: 13 week, group: systemic, systemic / in life observation / body weight / body weight gain + systemic / organ weight / kidney / relative to body weight
rat [8] = settings: Prenatal developmental toxicity study, sprague dawley, Oral, Gavage/Intubation, dose end: 15 GD
rabbit [9] = settings: Prenatal developmental toxicity study, other, Oral, Gavage/Intubation, dose end: 18 GD
rat [10] = settings: Subchronic oral toxicity in rodents, fischer, Feed, dose end: 90 day, group: systemic, systemic / pathology microscopic / stomach / erosion + systemic / pathology microscopic / stomach / hyperkeratosis + systemic / pathology …
rat [11] = settings: Developmental neurotoxicity study; sprague dawley; Injection; Intraperitoneal; dose end: 112 PND; group: cannot be grouped; developmental / developmental malformation / bone / kinked + developmental / offspring survival late / [other] / [other] + reproductive / …
mouse [12] = settings: Subchronic oral toxicity in rodents, cd1, Feed, dose end: 90 day
dog [13] = settings: Subchronic oral toxicity in nonrodent, beagle, Feed, dose end: 28 day, group: systemic
mouse [14] = settings: Carcinogenicity, cd1, Oral, Feed, dose end: 78 week, group: systemic
rat [15] = settings: Subchronic oral toxicity in rodents, sprague dawley, Feed, dose end: 90 day, group: systemic
rat [16] = settings: Subchronic oral toxicity in rodents, sprague dawley, Feed, dose end: 13 week, group: systemic, systemic / in life observation / body weight / body weight + systemic / in life observation / body weight / body weight gain + systemic / in…
rat [17] = settings: Subchronic oral toxicity in rodents, sprague dawley, Feed, dose end: 13 week, group: systemic
dog [18] = settings: Chronic toxicity, beagle, Oral, Feed, dose end: 52 week, group: systemic
dog [19] = settings: Subchronic oral toxicity in nonrodent, beagle, Feed, dose end: 90 day, group: systemic
rat [20] = settings: Combined chronic toxicity/carcinogenicity, other, Oral, Feed, dose end: 24 month, group: systemic
rat [21] = settings: Multigenerational reproductive toxicity study, sprague dawley, Oral, Feed, dose end: 2 generation; remark: listed apart in the source
rat [22] = settings: Prenatal developmental toxicity study, sprague dawley, Oral, Gavage/Intubation, dose end: 15 GD; remark: listed apart in the source
[23] = systemic / pathology microscopic / liver / pigmentation + systemic / hematology / erythrocyte (rbc) count differential / erythrocyte (rbc…
[24] = systemic / pathology microscopic / liver / pigmentation + systemic / pathology microscopic / epididymis / inflammation + systemic / …
[25] = group: offspring, developmental / offspring survival late / viability index / viability index + developmental / offspring survival late / lactation index / …
[26] = group: offspring, developmental / offspring survival late / viability index / viability index + systemic / in life observation / body weight / offspring (pup…
[27] = group: parental, systemic / in life observation / body weight / body weight + systemic / in life observation / body weight / body weight gain + systemic / …
[28] = systemic / in life observation / mortality / mortality + systemic / pathology microscopic / bone marrow / hyperplasia + systemic / pathology…
[29] = systemic / organ weight / brain / relative to body weight
[30] = group: developmental, developmental / developmental malformation / bone / unossified + developmental / developmental malformation / brain / hydrocephalus + …
[31] = group: maternal, reproductive / reproductive performance / aborted / aborted + systemic / in life observation / body weight / body weight gain + systemic / …
[32] = systemic / pathology gross / liver / foci
[33] = systemic / pathology microscopic / thymus / involution + systemic / clinical chemistry / alanine aminotransferase (alt/sgpt) / alanine …
[34] = systemic / pathology microscopic / thymus / involution + systemic / pathology microscopic / epididymis / reduced spermatogenesis + systemic…
[35] = group: developmental, developmental / developmental malformation / bone / [other] + developmental / developmental malformation / kidney / dilated renal pelvis + …
[36] = group: maternal, systemic / in life observation / body weight / body weight gain + systemic / in life observation / food consumption / food consumption
[37] = group: maternal, systemic / in life observation / body weight / body weight gain + systemic / in life observation / food consumption / food consumption + …
[38] = group: developmental, developmental / developmental malformation / bone / branched + developmental / developmental malformation / bone / full supernumerary
[39] = group: cholinesterase, cholinesterase / cholinesterase / cholinesterase / cholinesterase (che)
[40] = group: systemic, systemic / clinical chemistry / glucose / glucose + systemic / in life observation / body weight / body weight + systemic / in life …
[41] = systemic / in life observation / body weight / body weight gain
[42] = systemic / in life observation / body weight / body weight gain + systemic / in life observation / food consumption / food consumption + …
[43] = systemic / in life observation / body weight / body weight + systemic / in life observation / body weight / body weight gain + systemic / …
[44] = systemic / pathology microscopic / bone marrow / hyperplasia
[45] = systemic / pathology microscopic / spleen / pigmentation
[46] = systemic / pathology microscopic / spleen / pigmentation + systemic / in life observation / body weight / body weight + systemic / in life …
[47] = systemic / pathology microscopic / kidney / inclusion body intranuclear
[48] = systemic / pathology microscopic / kidney / inclusion body intranuclear + systemic / in life observation / body weight / body weight + …
[49] = systemic / in life observation / body weight / body weight + systemic / in life observation / body weight / body weight gain + systemic / in…
[50] = systemic / in life observation / body weight / body weight gain + systemic / in life observation / body weight / body weight + systemic / in…
[51] = systemic / in life observation / clinical signs / respiration (rales)
[52] = group: offspring, developmental / developmental landmark / preputial separation / preputial separation + systemic / in life observation / body weight / litter…
[53] = group: parental, systemic / in life observation / body weight / body weight + systemic / in life observation / body weight / body weight gain + systemic / in…
[54] = group: reproductive, reproductive / offspring survival early / litter size / litter size
[55] = group: developmental, developmental / developmental malformation / bone / short
[56] = group: maternal, systemic / in life observation / body weight / body weight + systemic / in life observation / body weight / body weight gain + systemic / in…

CCc1c(C(=O)[O-])c(=O)cnn1-c1ccc(Cl)cc1.[K+] [Clofencet-potassium]
NEL (dog [1]; [23]): 5 mg/kg/day
NOAEL (dog [1]; [23]): 5 mg/kg/day
LEL (dog [1]; [24]): 30 mg/kg/day
LOAEL (dog [1]; [24]): 30 mg/kg/day
LEL (rat [2]; [25]): 393 mg/kg/day
LOAEL (rat [2]; [25]): 393 mg/kg/day
NEL (rat [2]; [26]): 38 mg/kg/day
NOAEL (rat [2]; [26]): 38 mg/kg/day
LEL (rat [2]; [27]): 1600 mg/kg/day
LOAEL (rat [2]; [27]): 1600 mg/kg/day
NEL (rat [2]; [27]): 393 mg/kg/day
NOAEL (rat [2]; [27]): 393 mg/kg/day
LOAEL (mouse [3]; [28]): 1230 mg/kg/day
NOAEL (mouse [3]; [28]): 501 mg/kg/day
LEL (mouse [3]; [29]): 11.4 mg/kg/day
NEL (mouse [3]; [29]): < 11.4 mg/kg/day
LEL (rabbit [4]; [30]): 500 mg/kg/day
LOAEL (rabbit [4]; [30]): 500 mg/kg/day
NEL (rabbit [4]; [30]): 150 mg/kg/day
NOAEL (rabbit [4]; [30]): 150 mg/kg/day
LEL (rabbit [4]; [31]): 500 mg/kg/day
LOAEL (rabbit [4]; [31]): 500 mg/kg/day
NEL (rabbit [4]; [31]): 150 mg/kg/day
NOAEL (rabbit [4]; [31]): 150 mg/kg/day
LOAEL (rat [5]; systemic / in life observation / clinical signs / urine, discoloration + systemic / pathology gross / lung / foci + systemic / pathology …): 470 mg/kg/day
LEL (rat [5]; [32]): 4.7 mg/kg/day
NEL (rat [5]; [32]): < 4.7 mg/kg/day
NOAEL (rat [5]; systemic / pathology gross / liver / foci + systemic / in life observation / clinical signs / urine, discoloration + systemic / pathology …): 47 mg/kg/day
NEL (dog [6]; [33]): 50 mg/kg/day
NOAEL (dog [6]; [33]): 50 mg/kg/day
LEL (dog [6]; [34]): 200 mg/kg/day
LOAEL (dog [6]; [34]): 200 mg/kg/day
LEL (rat [7]): 1480 mg/kg/day
LOAEL (rat [7]): 1480 mg/kg/day
NEL (rat [7]): 373 mg/kg/day
NOAEL (rat [7]): 373 mg/kg/day

CC(C)C1CCC(Cc2ccc(Cl)cc2)C1(O)Cn1cncn1 (stereo not given) [Ipconazole]
LEL (rat [8]; [35]): 30 mg/kg/day
LOAEL (rat [8]; [35]): 30 mg/kg/day
NEL (rat [8]; [35]): 10 mg/kg/day
NOAEL (rat [8]; [35]): 10 mg/kg/day
LOAEL (rat [8]; [36]): 30 mg/kg/day
LEL (rat [8]; [37]): 30 mg/kg/day
NEL (rat [8]; [37]): 10 mg/kg/day
NOAEL (rat [8]; [37]): 10 mg/kg/day
LEL (rabbit [9]; [38]): 50 mg/kg/day
LOAEL (rabbit [9]; [38]): 50 mg/kg/day
NEL (rabbit [9]; [38]): 10 mg/kg/day
NOAEL (rabbit [9]; [38]): 10 mg/kg/day
LEL (rabbit [9]; [36]): 50 mg/kg/day
LOAEL (rabbit [9]; [36]): 50 mg/kg/day
NEL (rabbit [9]; [36]): 10 mg/kg/day
NOAEL (rabbit [9]; [36]): 10 mg/kg/day
LEL (rat [10]): 29.9 mg/kg/day
LOAEL (rat [10]): 29.9 mg/kg/day
NEL (rat [10]): 7.22 mg/kg/day
NOAEL (rat [10]): 7.22 mg/kg/day

O=c1[nH]c(=O)n([C@H]2C[C@H](O)[C@@H](CO)O2)cc1Br [5-Bromo-2'-deoxyuridine]
LEL (rat [11]): 50 mg/kg/day
LOAEL (rat [11]): > 100 mg/kg/day
NEL (rat [11]): < 50 mg/kg/day
NOAEL (rat [11]): ≥ 100 mg/kg/day

CC(=NC#N)N(C)Cc1ccc(Cl)nc1 [Acetamiprid]
LEL (mouse [12]; [39]): 430 mg/kg/day
LOAEL (mouse [12]; [39]): > 430 mg/kg/day
NEL (mouse [12]; [39]): 211 mg/kg/day
NOAEL (mouse [12]; [39]): ≥ 430 mg/kg/day
LEL (mouse [12]; [40]): 211 mg/kg/day
LOAEL (mouse [12]; [40]): 211 mg/kg/day
NEL (mouse [12]; [40]): 106 mg/kg/day
NOAEL (mouse [12]; [40]): 106 mg/kg/day
LEL (dog [13]; [41]): 28 mg/kg/day
LOAEL (dog [13]; [41]): 28 mg/kg/day
NEL (dog [13]; [42]): 16.7 mg/kg/day
NOAEL (dog [13]; [42]): 16.7 mg/kg/day
LOAEL (mouse [14]; [43]): 65.6 mg/kg/day
NOAEL (mouse [14]; [43]): 20.3 mg/kg/day
LEL (mouse [14]; [44]): 20.3 mg/kg/day
NEL (mouse [14]; [44]): < 20.3 mg/kg/day
LEL (rat [15]; [45]): 112 mg/kg/day
LOAEL (rat [15]; [45]): 112 mg/kg/day
NEL (rat [15]; [46]): 36.5 mg/kg/day
NOAEL (rat [15]; [46]): 36.5 mg/kg/day
LEL (rat [16]): 50.8 mg/kg/day
LOAEL (rat [16]): 50.8 mg/kg/day
NEL (rat [16]): 12.4 mg/kg/day
NOAEL (rat [16]): 12.4 mg/kg/day
LEL (rat [17]; [47]): 250 mg/kg/day
LOAEL (rat [17]; [47]): 250 mg/kg/day
NEL (rat [17]; [48]): 48.9 mg/kg/day
NOAEL (rat [17]; [48]): 48.9 mg/kg/day
LOAEL (dog [18]; systemic / in life observation / body weight / body weight + systemic / in life observation / body weight / body weight gain): 55 mg/kg/day
LEL (dog [18]; [49]): 55 mg/kg/day
NEL (dog [18]; [49]): 20 mg/kg/day
NOAEL (dog [18]; [49]): 20 mg/kg/day
LOAEL (dog [19]; [41]): 32 mg/kg/day
NEL (dog [19]; [50]): 14 mg/kg/day
NOAEL (dog [19]; [50]): 14 mg/kg/day
LEL (dog [19]; systemic / in life observation / body weight / body weight gain + systemic / in life observation / food consumption / food consumption): 32 mg/kg/day
LEL (rat [20]; [51]): 7.1 mg/kg/day
NEL (rat [20]; [51]): < 7.1 mg/kg/day
LOAEL (rat [20]; systemic / pathology microscopic / liver / vacuolization): 17.5 mg/kg/day
NOAEL (rat [20]; systemic / pathology microscopic / liver / vacuolization + systemic / in life observation / body weight / body weight + systemic / in life …): 7.1 mg/kg/day
LEL (rat [21]; group: offspring, developmental / developmental landmark / preputial separation / preputial separation): 17.9 mg/kg/day
LOAEL (rat [21]; [52]): 51 mg/kg/day
NEL (rat [21]; [52]): 6.5 mg/kg/day
NOAEL (rat [21]; [52]): 17.9 mg/kg/day
LOAEL (rat [21]; [53]): 51 mg/kg/day
NEL (rat [21]; [53]): 6.5 mg/kg/day
NOAEL (rat [21]; [53]): 17.9 mg/kg/day
LEL (rat [21]; group: parental, systemic / in life observation / body weight / body weight gain): 17.9 mg/kg/day
LEL (rat [21]; [54]): 51 mg/kg/day
LOAEL (rat [21]; [54]): 51 mg/kg/day
NEL (rat [21]; [54]): 17.9 mg/kg/day
NOAEL (rat [21]; [54]): 17.9 mg/kg/day
LEL (rat [22]; [55]): 50 mg/kg/day
LOAEL (rat [22]; [55]): 50 mg/kg/day
NEL (rat [22]; [55]): 16 mg/kg/day
NOAEL (rat [22]; [55]): 16 mg/kg/day
LEL (rat [22]; [56]): 50 mg/kg/day
LOAEL (rat [22]; [56]): 50 mg/kg/day
NEL (rat [22]; [56]): 16 mg/kg/day
NOAEL (rat [22]; [56]): 16 mg/kg/day
